Results from patent US11026426B2, “Oxadiazole and phenol derivatives as antibacterial and/or herbicidal agents” (NORTHERN ILLINOIS RESEARCH FOUNDATION, priority 2017, dated 2021).
Where two headings read alike, the source gives them in different places.

Key:
[1] = tested on: Corynebacterium pseudodiphtheriae; experiment: Antibacterial preliminary screening CP; assay type: cell-based; conditions: score 0-3;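 note: 0 is no inhibition and 3 matches the commercial antibiotic control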
Klebsiella pneumonia = experiment: Antibacterial preliminary screening KP; assay type: cell-based; conditions: score 0-3; note: key: 0 represents no inhibition; 3 is comparable to commercial antibiotic control
Mycobacterium smegmatis = experiment: Antibacterial preliminary screening MS; assay type: cell-based; conditions: score 0-3; note: key: 0 represents no inhibition; 3 is comparable to commercial antibiotic control
Escherichia coli = experiment: Antibacterial preliminary screening EC; assay type: cell-based; conditions: score 0-3; note: key: 0 represents no inhibition; 3 is comparable to commercial antibiotic control
[2] = target: T1, Mycobacterium tuberculosis IspD (MtIspD) (Mycobacterium tuberculosis, UniProt P9WKG9); experiment: Thermal shift assay against MtIspD; assay type: binding
T1 sequence (P9WKG9 1-231): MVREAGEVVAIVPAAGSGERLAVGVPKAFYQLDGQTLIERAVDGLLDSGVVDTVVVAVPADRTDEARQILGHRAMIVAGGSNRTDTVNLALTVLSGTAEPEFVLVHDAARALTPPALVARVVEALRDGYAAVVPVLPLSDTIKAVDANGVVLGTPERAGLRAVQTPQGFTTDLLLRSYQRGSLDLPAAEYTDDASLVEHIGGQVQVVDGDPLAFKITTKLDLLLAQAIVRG

Corynebacterium xerosis = experiment: Antibacterial preliminary screening CX; assay type: cell-based; conditions: score 0-3; note: key: 0 represents no inhibition; 3 is comparable to commercial antibiotic control
[3] = tested on: Burkholderia thailandensis; assay type: cell-based; conditions: preliminary screening, score 0-3
lettuce seeds = experiment: Lettuce leaf assay; assay type: in vivo; design: key: 0 (no effect); 5(complete inhibition or bleaching); conditions: ranking 0-5
Method in brief: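 Qualitative assay: compounds in volatile organic solvent applied to filter paper in a petri dish, solvent evaporated, lettuce seeds and 5 mL water added to give test concentrations. Germination, root development and leaf bleaching scored days 3 and 4, ranked 0 (no effect) to 5 (complete inhibition or bleaching).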

Bacillus cereus = experiment: Antibacterial preliminary screening BC; assay type: cell-based; conditions: score 0-3; note: key: 0 represents no inhibition; 3 is comparable to commercial antibiotic control
[4] = target: Lycopersicon esculentum IspE (LeIspE) (Solanum lycopersicum, UniProt P93841); experiment: Thermal shift assay against LeIspE; assay type: binding
AtIspD = AtIspD (Arabidopsis thaliana, UniProt P69834); experiment: University of Hamburg photometric enzymatic inhibition assay AtIspD; assay type: biochemical
Method in brief: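 Coupled photometric assay: 2.4 mU AtIspD with 1 mM (2R,3S)-2,3-dihydroxy-4-oxopentyl phosphate, 2.1 mM CTP, excess IspE (0.4 U), ATP, pyruvate kinase/lactate dehydrogenase and 460 μM NADH. Run in 100 mM Tris-HCl pH 8.0, 10 mM MgCl2, 1 mM DTT, 1.1% DMSO at 27 °C, monitored photometrically.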

LeIspE = LeIspE (Solanum lycopersicum, UniProt P93841); experiment: University of Hamburg photometric enzymatic inhibition assay LeIspE; assay type: biochemical, Lycopersicon esculentum
Method in brief: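 Photometric coupled assay with pyruvate kinase/lactate dehydrogenase following NADH (460 μM). Mix: 100 mM Tris-HCl pH 8.0, 10 mM MgCl2, 1 mM DTT, 2.5 mM phosphoenolpyruvate, 2 mM ATP, 1 mM 4-diphosphocytidyl-2-C-methylerythritol, 1.1% DMSO, 2.4 mU IspE; incubated at 27° C.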

Pseudomonas aeruginosa = experiment: Antibacterial preliminary screening PA; assay type: cell-based; conditions: for PA score: score 0-3
Micrococcus luteus = experiment: Antibacterial preliminary screening ML; assay type: cell-based; conditions: score 0-3; note: key: 0 represents no inhibition; 3 is comparable to commercial antibiotic control
AtIspF = AtIspF (Arabidopsis thaliana, UniProt Q9CAK8); experiment: University of Hamburg photometric enzymatic inhibition assay AtIspF; assay type: biochemical
Method in brief: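 Coupled photometric assay (CMP kinase/pyruvate kinase/lactate dehydrogenase, NADH consumption) with 2.4 mU AtIspF and 1 mM 4-diphosphocytidyl-2C-methylerythritol 2-phosphate, 2 mM ATP, in 100 mM Tris-HCl pH 8.0, 10 mM MgCl2, 1.1% DMSO. Monitored at 27 °C.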

AtIspF, sequence (Q9CAK8 53-231): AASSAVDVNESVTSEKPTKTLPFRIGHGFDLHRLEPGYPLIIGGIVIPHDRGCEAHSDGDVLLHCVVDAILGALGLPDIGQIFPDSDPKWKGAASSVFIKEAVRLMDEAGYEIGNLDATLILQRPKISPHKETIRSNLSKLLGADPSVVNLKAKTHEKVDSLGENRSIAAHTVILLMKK
Lycopersicon esculentum IspE (LeIspE), sequence (P93841 89-401): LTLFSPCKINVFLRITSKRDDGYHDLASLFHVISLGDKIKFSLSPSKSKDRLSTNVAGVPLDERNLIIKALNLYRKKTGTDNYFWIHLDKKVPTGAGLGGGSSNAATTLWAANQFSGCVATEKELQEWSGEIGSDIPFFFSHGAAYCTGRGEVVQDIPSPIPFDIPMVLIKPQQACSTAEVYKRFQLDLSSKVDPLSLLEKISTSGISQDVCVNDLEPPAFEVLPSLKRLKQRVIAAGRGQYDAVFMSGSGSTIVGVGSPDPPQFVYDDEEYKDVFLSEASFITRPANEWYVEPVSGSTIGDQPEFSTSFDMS
LeIspE, sequence (P93841 89-401): as above
AtIspD, sequence (P69834 62-302): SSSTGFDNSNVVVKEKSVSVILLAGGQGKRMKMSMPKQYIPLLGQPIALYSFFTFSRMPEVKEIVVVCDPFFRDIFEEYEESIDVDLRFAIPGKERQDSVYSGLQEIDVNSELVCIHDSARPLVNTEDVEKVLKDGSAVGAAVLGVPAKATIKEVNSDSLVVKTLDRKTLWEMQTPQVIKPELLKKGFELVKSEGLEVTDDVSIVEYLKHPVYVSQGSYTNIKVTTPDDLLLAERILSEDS

Compound | CP score [1] | KP score (Klebsiella pneumonia) | MS score (Mycobacterium smegmatis) | EC score (Escherichia coli) | MtIspD melting point change [2] [°C] | MtIspD melting temp [2] [°C] | CX score (Corynebacterium xerosis) | BT score [3] | Bleaching (lettuce seeds; 0.15 mM) | Germination (lettuce seeds; 0.15 mM) | Root Dev. (lettuce seeds; 0.15 mM) | BC score (Bacillus cereus) | LeIspE melting point change [4] [°C] | LeIspE melting temp [4] [°C] | melting point [°C] | IC50 (AtIspD; read-out: AtIspD IC50) [µM] | IC50 (LeIspE; read-out: LeIspE IC50) [µM] | PA score (Pseudomonas aeruginosa) | ML score (Micrococcus luteus) | IC50 (AtIspF; read-out: AtIspF IC50) [µM] | other results
c1ccc(CCc2nnc(-c3cc4ccccc4[nH]3)o2)cc1 [HGN-215, 2-(1H-indol-2-yl)-5-phenethyl-1,3,4-oxadiazole] | 0 | 0 | 0 | 0 | 0.8 | 48.8 | 0 | 0 | 0 | 0 | 0 | 0 | −2.00 | 47.50 | 161 to 164 | > 1000 | 430 ± 48 | 0 | 0 | > 1000 | Bleaching (lettuce seeds; 0.3 mM): 0; Germination (lettuce seeds; 0.3 mM): 0; Root Dev. (lettuce seeds; 0.3 mM): 0
c1ccc2[nH]c(-c3nnc(C4CCCCC4)o3)cc2c1 [HGN-254, 2-cyclohexyl-5-(1H-indol-2-yl)-1,3,4-oxadiazole] | 0 | 0 | 0 | 0 | 0.5 | 48.5 | 0 | 0 | 0 | 0 | 0 | 0 | −2.00 | 47.50 | 187 to 193 | 322 | > 1000 | 0 | 0 | > 1000 | Bleaching (lettuce seeds; 0.3 mM): 0; Germination (lettuce seeds; 0.3 mM): 0; Root Dev. (lettuce seeds; 0.3 mM): 0
FC(F)(F)c1ccc(-c2nnc(-c3nc4ccccc4s3)o2)cc1 [HGN-337, 2-(benzo[d]thiazol-2-yl)-5-(4-(trifluoromethyl)phenyl)-1,3,4-oxadiazole] | 0 | 0 | 0 | 0 | 0.8 | 48.8 | 0 | 0 | 0 | 0 | 0 | 0 | −1.75 | 47.75 | 145 to 148 | > 500 | > 500 | 0 | 0 | > 500 | Bleaching (lettuce seeds; 0.3 mM): 0; Germination (lettuce seeds; 0.3 mM): 0; Root Dev. (lettuce seeds; 0.3 mM): 0
O=[N+]([O-])c1cc(-c2nnc(-c3nc4ccccc4s3)o2)cc([N+](=O)[O-])c1 [HGN-334, 2-(benzo[d]thiazol-2-yl)-5-(3,5-dinitrophenyl)-1,3,4-oxadiazole] | 0 | 0 | 0 | 0 | 0.0 | 48.0 | 0 | 0 | 0 | 0 | 0 | 0 | −1.50 | 48.00 | 180 to 185 | – | – | 0 | 0 | – | Bleaching (lettuce seeds; 0.3 mM): 0; Germination (lettuce seeds; 0.3 mM): 0; Root Dev. (lettuce seeds; 0.3 mM): 0; IC50 (AtIspD): > 500 µM; IC50 (LeIspE): > 500 µM; IC50 (AtIspF): > 500 µM
Cc1ccc(-c2nnc(-c3cc4ccccc4[nH]3)o2)cc1 [HGN-242, 2-(1H-indol-2-yl)-5-(p-tolyl)-1,3,4-oxadiazole] | 0 | 0 | 0 | 0 | 0.8 | 48.8 | 0 | 0 | – | – | – | 0 | −1.75 | 47.75 | 228 to 234 | 225 ± 17 | 109 ± 35 | 0 | 0 | > 1000 | Bleaching (lettuce seeds; 0.5 mM): 0; Germination (lettuce seeds; 0.5 mM): 2; Root Dev. (lettuce seeds; 0.5 mM): 0; Bleaching (lettuce seeds; 1.0 mM): 0; Germination (lettuce seeds; 1.0 mM): 4; Root Dev. (lettuce seeds; 1.0 mM): 0
CC(C)c1nnc(-c2cc3ccccc3[nH]2)o1 [HGN-240, 2-(1H-indol-2-yl)-5-isopropyl-1,3,4-oxadiazole] | 0 | 0 | 0 | 0 | 0.8 | 48.8 | 0 | 0 | – | – | – | 0 | −1.50 | 48.00 | 164 to 170 | > 1000 | > 1000 | 0 | 0 | > 1000 | Bleaching (lettuce seeds; 0.5 mM): 0; Germination (lettuce seeds; 0.5 mM): 1; Root Dev. (lettuce seeds; 0.5 mM): 0; Bleaching (lettuce seeds; 1.0 mM): 0; Germination (lettuce seeds; 1.0 mM): 2; Root Dev. (lettuce seeds; 1.0 mM): 0
Cc1ccc(-c2nnc(-c3nc4ccccc4s3)o2)cc1 [HGN-338, 2-(benzo[d]thiazol-2-yl)-5-(p-tolyl)-1,3,4-oxadiazole] | 0 | 0 | 0 | 0 | 0.0 | 48.0 | 0 | 0 | 0 | 0 | 0 | 0 | −1.50 | 48.00 | 155 to 160 | > 500 | > 500 | 0 | 0 | > 500 | Bleaching (lettuce seeds; 0.3 mM): 0; Germination (lettuce seeds; 0.3 mM): 1; Root Dev. (lettuce seeds; 0.3 mM): 0
c1ccc(Cc2nnc(-c3cc4ccccc4[nH]3)o2)cc1 [HGN-221, 2-benzyl-5-(1H-indol-2-yl)-1,3,4-oxadiazole] | 0 | 0 | 0 | 0 | 0.5 | 48.5 | 0 | 0 | 0 | 0 | 0 | 0 | 0.00 | 49.50 | 211 to 215 | 636 ± 68 | > 1000 | 0 | 0 | > 1000 | Bleaching (lettuce seeds; 0.3 mM): 0; Germination (lettuce seeds; 0.3 mM): 0; Root Dev. (lettuce seeds; 0.3 mM): 0
Oc1c(Br)cc(Br)cc1-c1cc2ccccc2[nH]1 [HGN-340, 2,4-dibromo-6-(1H-indol-2-yl)phenol] | 0 | 0 | 0 | 0 | 1.3 | 49.3 | 0 | 0 | 0 | 0 | 0 | 2 | 0.50 | 50.00 | 104 to 110 | 50 | > 500 | 0 | 0 | 470 ± 116 | Bleaching (lettuce seeds; 0.3 mM): 0; Germination (lettuce seeds; 0.3 mM): 0; Root Dev. (lettuce seeds; 0.3 mM): 0; effectiveness against Pseudomonas aeruginosa (Pseudomonas aeruginosa): moderately effective
